Experimental data as given in PubChem BioAssay AID274 (DTP/NCI, 2004).
Several values for one entry are separate records, joined by “and”; a condition that tells them apart may be missing. Identical values can stand only once. Toxic doses and inconclusive results are not listed.

Test system: BDF1 mice, Lewis lung carcinoma iv, survival T/C
Experiment: NCI In Vivo Anticancer Drug Screen. Data for tumor model Lewis Lung Carcinoma (intravenous) in B6D2F1 (BDF1) mice
Conditions: endpoint: median survival time, higher = longer survival
Experimental: The antitumor activity of compounds was measured in mice bearing transplantable tumors. Survival or tumor size were measured and the results are expressed as the measurement made in the treated group (T) divided by the measurement made in the vehicle treated control group (C). The tumor model used in this assay is Lewis Lung Carcinoma (intravenous) in B6D2F1 (BDF1) mice

[1] = dose: 0.25 mg/kg/injection, schedule: Q01DX009 (ip), vehicle: saline
[2] = dose: 0.5 mg/kg/injection, schedule: Q01DX009 (ip), vehicle: saline
[3] = dose: 1.0 mg/kg/injection, schedule: Q01DX009 (ip), vehicle: saline
[4] = dose: 12.5 mg/kg/injection, schedule: Q01DX009 (ip), vehicle: saline
[5] = dose: 25.0 mg/kg/injection, schedule: Q01DX009 (ip), vehicle: saline
[6] = dose: 50.0 mg/kg/injection, schedule: Q01DX009 (ip), vehicle: saline with Tween-80
[7] = dose: 100.0 mg/kg/injection, schedule: Q01DX009 (ip), vehicle: saline with Tween-80
[8] = dose: 12.5 mg/kg/injection, schedule: Q01DX009 (ip), vehicle: saline with Tween-80
[9] = dose: 25.0 mg/kg/injection, schedule: Q01DX009 (ip), vehicle: saline with Tween-80
[10] = dose: 20.0 mg/kg/injection, schedule: Q01DX009 (ip), vehicle: Klucel (hydroxypropylcellulose) (HPC)
[11] = dose: 40.0 mg/kg/injection, schedule: Q01DX009 (ip), vehicle: Klucel (hydroxypropylcellulose) (HPC)
[12] = dose: 80.0 mg/kg/injection, schedule: Q01DX009 (ip), vehicle: Klucel (hydroxypropylcellulose) (HPC)
[13] = dose: 12.5 mg/kg/injection, schedule: Q01DX009 (ip), vehicle: Klucel (hydroxypropylcellulose) (HPC)
[14] = dose: 25.0 mg/kg/injection, schedule: Q01DX009 (ip), vehicle: Klucel (hydroxypropylcellulose) (HPC)
[15] = dose: 50.0 mg/kg/injection, schedule: Q01DX009 (ip), vehicle: Klucel (hydroxypropylcellulose) (HPC)
[16] = dose: 50.0 mg/kg/injection, schedule: Q01DX009 (ip), vehicle: saline

N=C(N)c1ccc(/C=C/c2ccc(C(=N)N)cc2O)cc1
T/C (dose: 3.12 mg/kg/injection, schedule: Q01DX009 (ip), vehicle: water): 96 % of control | T/C (dose: 6.25 mg/kg/injection, schedule: Q01DX009 (ip), vehicle: water): 101 % of control | T/C (dose: 12.5 mg/kg/injection, schedule: Q01DX009 (ip), vehicle: water): 101 % of control | T/C (dose: 25.0 mg/kg/injection, schedule: Q01DX009 (ip), vehicle: water): 111 % of control | T/C (dose: 50.0 mg/kg/injection, schedule: Q01DX009 (ip), vehicle: water): 115 % of control

O=P1(NCCCl)OCCC(OO)N1CCCl (configuration not stated)
T/C (dose: 69.0 mg/kg/injection, schedule: Q01DX001 (ip), vehicle: Klucel (hydroxypropylcellulose) (HPC)): 150 % of control | T/C (dose: 101.0 mg/kg/injection, schedule: Q01DX001 (ip), vehicle: Klucel (hydroxypropylcellulose) (HPC)): 117 % of control | T/C (dose: 230.0 mg/kg/injection, schedule: Q01DX001 (ip), vehicle: Klucel (hydroxypropylcellulose) (HPC)): 160 % of control

N[C@@H](Cc1ccc(N(CCCl)CCCl)cc1)C(=O)O
T/C [1]: 92 % of control | T/C [2]: 99 % of control and 102 % of control and 103 % of control | T/C [3]: 104 % of control and 105 % of control and 109 % of control | T/C (dose: 1.95 mg/kg/injection, schedule: Q04DX003 (ip), vehicle: saline): 92 % of control | T/C (dose: 2.0 mg/kg/injection, schedule: Q01DX009 (ip), vehicle: saline): 96 % of control and 110 % of control and 117 % of control | T/C (dose: 3.24 mg/kg/injection, schedule: Q04DX003 (ip), vehicle: saline): 98 % of control | T/C (dose: 3.4 mg/kg/injection, schedule: Q04DX003 (ip), vehicle: saline): 100 % of control | T/C (dose: 4.0 mg/kg/injection, schedule: Q01DX009 (ip), vehicle: saline): 112 % of control and 114 % of control | T/C (dose: 4.9 mg/kg/injection, schedule: Q04DX003 (ip), vehicle: saline): 106 % of control | T/C (dose: 5.4 mg/kg/injection, schedule: Q04DX003 (ip), vehicle: saline): 100 % of control | T/C (dose: 8.0 mg/kg/injection, schedule: Q01DX009 (ip), vehicle: saline): 113 % of control | T/C (dose: 9.0 mg/kg/injection, schedule: Q04DX003 (ip), vehicle: saline): 154 % of control | T/C (dose: 14.3 mg/kg/injection, schedule: Q04DX003 (ip), vehicle: saline): 122 % of control

O=C(C1CO1)C(Cl)(Cl)Cl (configuration not stated)
T/C [4]: 98 % of control | T/C [5]: 102 % of control

Clc1ccc2c(Cl)ncnc2c1
T/C [6]: 107 % of control | T/C [7]: 118 % of control | T/C (dose: 200.0 mg/kg/injection, schedule: Q01DX009 (ip), vehicle: saline with Tween-80): 111 % of control

CC1(c2ccc(Cl)cc2)OC(=O)C(=Cc2ccc([N+](=O)[O-])s2)C(=O)O1 (configuration not stated)
T/C [8]: 100 % of control | T/C [9]: 100 % of control | T/C [6]: 99 % of control | T/C [7]: 98 % of control

COC(=O)C(F)C(Br)C(=O)OC (configuration not stated)
T/C (dose: 3.13 mg/kg/injection, schedule: Q01DX009 (ip), vehicle: saline with Tween-80): 95 % of control | T/C (dose: 6.25 mg/kg/injection, schedule: Q01DX009 (ip), vehicle: saline with Tween-80): 99 % of control | T/C [8]: 95 % of control | T/C [9]: 100 % of control | T/C [6]: 104 % of control

CC[PH+](CC)CC[S-].CC[PH+](CC)CC[S-].[Au+].[Au+]
T/C (dose: 2.5 mg/kg/injection, schedule: Q01DX009 (ip), vehicle: Klucel (hydroxypropylcellulose) (HPC)): 115 % of control | T/C (dose: 5.0 mg/kg/injection, schedule: Q01DX009 (ip), vehicle: Klucel (hydroxypropylcellulose) (HPC)): 102 % of control | T/C (dose: 10.0 mg/kg/injection, schedule: Q01DX009 (ip), vehicle: Klucel (hydroxypropylcellulose) (HPC)): 109 % of control | T/C [10]: 114 % of control | T/C [11]: 102 % of control | T/C [12]: 109 % of control

N=C(N)SCc1cccc2c(=O)cc(-c3ccccc3)oc12
T/C [13]: 107 % of control | T/C [14]: 104 % of control | T/C [5]: 106 % of control | T/C [15]: 107 % of control | T/C [16]: 94 % of control | T/C (dose: 100.0 mg/kg/injection, schedule: Q01DX009 (ip), vehicle: saline): 100 % of control | T/C (dose: 400.0 mg/kg/injection, schedule: Q01DX009 (ip), vehicle: saline): 89 % of control

CCOC(=O)CNC(=O)CCCCSc1ncnc2nc[nH]c12
T/C [10]: 102 % of control | T/C [11]: 106 % of control | T/C [12]: 98 % of control | T/C (dose: 160.0 mg/kg/injection, schedule: Q01DX009 (ip), vehicle: Klucel (hydroxypropylcellulose) (HPC)): 98 % of control | T/C (dose: 320.0 mg/kg/injection, schedule: Q01DX009 (ip), vehicle: Klucel (hydroxypropylcellulose) (HPC)): 105 % of control

CC(=O)N(C)c1ccc(Nc2cc(C)[nH]c3ccc4ncnc4c23)cc1
T/C (dose: 6.25 mg/kg/injection, schedule: Q01DX009 (ip), vehicle: saline): 97 % of control | T/C [4]: 93 % of control | T/C [5]: 93 % of control | T/C [16]: 117 % of control

COC1=C(NC(C)=O)C(=O)c2nc(-c3nc(C(=O)O)c(C)c(-c4ccc(OC)c(OC)c4O)c3N)ccc2C1=O
T/C (dose: 6.0 mg/kg/injection, schedule: Q01DX009 (ip), vehicle: Klucel (hydroxypropylcellulose) (HPC)): 101 % of control | T/C (dose: 12.0 mg/kg/injection, schedule: Q01DX009 (ip), vehicle: Klucel (hydroxypropylcellulose) (HPC)): 96 % of control | T/C [14]: 98 % of control | T/C [15]: 97 % of control

O=[n+]1c2c(n([O-])c3ccccc31)-c1cccc3cccc-2c13
T/C [9]: 100 % of control | T/C [6]: 104 % of control | T/C [7]: 105 % of control

C=C(Cl)C(=NC(C)(C)C)Nc1ccccc1C
T/C (dose: 3.12 mg/kg/injection, schedule: Q01DX009 (ip), vehicle: Klucel (hydroxypropylcellulose) (HPC)): 100 % of control | T/C (dose: 6.25 mg/kg/injection, schedule: Q01DX009 (ip), vehicle: Klucel (hydroxypropylcellulose) (HPC)): 110 % of control | T/C [13]: 107 % of control | T/C [14]: 108 % of control

CC(=O)O[C@@H]1C(=O)C=C(C)[C@@H]2[C@@H](OC(=O)C=C(C)C)[C@H]3OC(=O)C[C@H]4[C@@H](C)[C@@H](O)[C@]5(O)OC[C@]34[C@H]5[C@@]12C
T/C (dose: 0.12 mg/kg/injection, schedule: Q01DX009 (ip), vehicle: saline): 107 % of control | T/C [1]: 106 % of control | T/C [2]: 102 % of control | T/C [3]: 107 % of control
